The values that follow come from patent US11708348B2, “Protease inhibitors for treatment of coronavirus infections” (The Scripps Research Institute, priority 2021, dated 2023).

Molecules are shown by their SMILES. Where a name gives a salt, the structure may show the parent alone. Read-outs that look alike come from different tables or passages of the source.

The subject of the assay is SARS-CoV-2 strain USA-WA1/2020. Put plainly: microbe, parasite or virus in culture. Format: cell-based. As to conditions: Severe acute respiratory syndrome coronavirus 2, HeLa-ACE2, 24 h, read-out: EC50, uM (Hela).
[1] abbreviates: HeLa-ACE2 cells, SARS-CoV-2 infection, 24 h.
The mark [2] stands for this setting: HeLa-ACE2 cells, SARS-CoV-2 infection, 24 h, class symbols.

As usually defined, the EC50 is the concentration at which the effect is half-maximal. For `CS(=O)(=O)NC/C=C/C[C@@H](O)C(=O)N1CC2(CC2)C[C@H]1C(=O)N[C@@H](C[C@@H]1CCNC1=O)C(=O)COC(F)(F)F` [Compound 675, (S)-5-((R,E)-2-hydroxy-6-(methylsulfonamido)hex-4-enoyl)-N-((S)-3-oxo-1-((S)-2-oxopyrrolidin-3-yl)-4-(trifluoromethoxy)butan-2-yl)-5-azaspiro[2.4]heptane-6-carboxamide], the EC50 under setting [1] was in the range of 0.2 to 0.5 µM.

Take `CCCC(=O)N1CC2(CC2)C[C@H]1C(=O)N[C@@H](C[C@@H]1CCNC1=O)C(=O)COC(F)(F)F` [Compound 705, (S)-5-butyryl-N-((S)-3-oxo-1-((S)-2-oxopyrrolidin-3-yl)-4-(trifluoromethoxy)butan-2-yl)-5-azaspiro[2.4]heptane-6-carboxamide]: the EC50 under setting [1] lay in the range of 0.2 to 0.5 µM.

`CC1(C)[C@@H]2[C@@H](C(=O)N[C@@H](C[C@@H]3CCCNC3=O)C(=O)COC(F)(F)F)N(C(=O)C(=O)NC3CCCCC3)C[C@@H]21` [Compound 470, (1R,2S,5S)-3-(2-(cyclohexylamino)-2-oxoacetyl)-6,6-dimethyl-N-((S)-3-oxo-1-((S)-2-oxopiperidin-3-yl)-4-(trifluoromethoxy)butan-2-yl)-3-azabicyclo[3.1.0]-hexane-2-carboxamide]: the EC50 under setting [1] is under 0.05 µM.

Turning to `O=C(N[C@@H](CC1CC1)C(=O)N[C@@H](C[C@@H]1CCNC1=O)C(=O)COC(F)(F)F)c1ncc(-c2ccccc2)[nH]1` [Compound 223, N-((S)-3-cyclopropyl-1-oxo-1-(((S)-3-oxo-1-((S)-2-oxopyrrolidin-3-yl)-4-(trifluoromethoxy)butan-2-yl)amino)propan-2-yl)-5-phenyl-1H-imidazole-2-carboxamide], the 50% effective concentration (EC50) under setting [2] is under 0.05 µM.

As for `CC(C)C[C@H](NC(=O)C(=O)N1CCCc2ccccc21)C(=O)N[C@@H](CC1CCNC1=O)C(=O)COC(F)(F)F` (stereo partly drawn) [Compound 196, (2S)-2-(2-(3,4-dihydroquinolin-1(2H)-yl)-2-oxoacetamido)-4-methyl-N-((2S)-3-oxo-1-(2-oxopyrrolidin-3-yl)-4-(trifluoromethoxy)butan-2-yl)pentanamide], the EC50 under setting [2] was under 0.05 µM.

Turning to `CC(C)C[C@H](NC(=O)C(=O)Nc1ccccc1F)C(=O)N[C@@H](Cc1cnc[nH]1)C(=O)COc1c(F)c(F)cc(F)c1F` (single isomer, unassigned) [Compound 135, trifluoroacetate], the EC50 lay within 0.5 to 1 µM.

As for `CC(C)C[C@H](NC(=O)C(=O)Nc1ccccc1C#N)C(=O)N[C@@H](C[C@@H]1CCNC1=O)C(=O)COc1c(F)c(F)cc(F)c1F` [Compound 75, N1-(2-cyanophenyl)-N2-((S)-4-methyl-1-oxo-1-(((S)-3-oxo-1-((S)-2-oxopyrrolidin-3-yl)-4-(2,3,5,6-tetra-fluorophenoxy)butan-2-yl)amino)pentan-2-yl)oxalamide], the EC50 under setting [2] was in the range of 0.05 to 0.2 µM.

For `COC(=O)C(=O)N1C[C@@H]2CCC[C@@H]2[C@H]1C(=O)N[C@@H](C[C@@H]1CCNC1=O)C(=O)COC(F)(F)F` [Compound 569, methyl 2-oxo-2-((1S,3aR,6aS)-1-(((S)-3-oxo-1-((S)-2-oxopyrrolidin-3-yl)-4-(trifluoromethoxy)butan-2-yl)carbamoyl)-hexahydrocyclo-penta[c]-pyrrol-2(1H)-yl)acetate], the EC50 (HeLa-ACE2 cells, SARS-CoV-2 infection, 24 h, given as bound) is over 1 µM.

Regarding `CCC(=O)O[C@H](CC(C)C)C(=O)N1CC2(CC2)C[C@H]1C(=O)N[C@@H](C[C@@H]1CCNC1=O)C(=O)COC(F)(F)F` [Compound 626, (R)-4-methyl-1-oxo-1-((S)-6-(((S)-3-oxo-l-((S)-2-oxopyrrolidin-3-yl)-4-(trifluoromethoxy)butan-2-yl)carbamoyl)-5-azaspiro[2.4]heptan-5-yl)pentan-2-yl propionate], the EC50 under setting [1] was under 0.05 µM.

Take `O=C(Nc1ccccc1F)C(=O)N1CCC[C@H]1C(=O)N[C@@H](C[C@@H]1CCNC1=O)C(=O)COc1c(F)c(F)cc(F)c1F` [Compound 91, (S)-1-(2-((2-fluorophenyl)amino)-2-oxoacetyl)-N-((S)-3-oxo-1-((S)-2-oxopyrrolidin-3-yl)-4-(2,3,5,6-tetrafluorophenoxy)butan-2-yl)pyrrolidine-2-carboxamide]: the EC50 under setting [2] fell in the range of 0.5 to 1 µM.
